Experiments:
GalNAc-T7 = target: T1, GalNAc-T7 (Homo sapiens, UniProt Q86SF2); assay: Inhibition of GalNAc-T7 activity with GalNAc2-3EA2 substrate; format: biochemical; details: 5 mM
T1 construct: made in house; host or cells: High Five insect cells (baculovirus)
T1 sequence (Q86SF2 30-657 limits assumed): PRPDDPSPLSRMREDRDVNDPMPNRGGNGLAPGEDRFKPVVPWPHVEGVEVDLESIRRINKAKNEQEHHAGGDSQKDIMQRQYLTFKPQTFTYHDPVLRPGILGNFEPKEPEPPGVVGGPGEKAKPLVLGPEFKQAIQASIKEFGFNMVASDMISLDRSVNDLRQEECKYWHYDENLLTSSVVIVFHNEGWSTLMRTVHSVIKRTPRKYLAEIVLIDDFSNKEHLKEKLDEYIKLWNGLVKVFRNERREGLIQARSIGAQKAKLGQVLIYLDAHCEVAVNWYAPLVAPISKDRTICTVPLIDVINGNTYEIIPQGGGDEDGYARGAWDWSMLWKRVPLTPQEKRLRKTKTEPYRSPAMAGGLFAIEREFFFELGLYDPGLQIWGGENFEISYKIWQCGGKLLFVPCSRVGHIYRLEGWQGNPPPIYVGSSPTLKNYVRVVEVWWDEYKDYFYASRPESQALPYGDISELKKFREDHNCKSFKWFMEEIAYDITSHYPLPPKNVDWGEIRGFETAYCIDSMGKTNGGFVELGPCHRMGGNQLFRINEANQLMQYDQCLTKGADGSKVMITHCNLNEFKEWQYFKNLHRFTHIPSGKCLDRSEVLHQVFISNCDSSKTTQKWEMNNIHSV
Method: Standard reaction mixtures (50 μl final volume) contained 25 mM cocadylate (pH 7.4), 10 mM MnCl2, 0.25% Triton X-100, 200 μM UDP-[^14C]-GalNAc (2,000 cpm/nmol) (Amersham), 200-500 μM acceptor peptides. Products were quantified by scintillation counting after chromatography on Dowex-1, octadecyl silica cartridges (Bakerbond), or HPLC (PC3.2/3 or mRPC C2/C18 SC2.1/10 Pharmacia, Smart System). […] Glycopeptides were purified on Supelclean LC-18 columns (1 ml, Supelco), and the number of GalNAc residues incorporated evaluated by MALDI-TOF mass spectrometry. The enzyme sources used were semipurified as previously described by successive sequential ion-exchange chromatographies on Amberlite (IRA95, Sigma) or DEAE Sephacel (Pharmacia), S-Sepharose Fast Flow (Pharmacia), and Mini-S™ (PC 3.2/3, Pharmacia) using the Smart System (Pharmacia) (28). Secreted GalNAc-T4 was obtained from a stably transfected CHO line (CHO/GalNA-T4/21A) (8) grown in roller bottles in HAMS F12 supplemented with 10% Fetal Bovine Serum. The experiments illustrated in FIG. 1 was performed with recombinant secreted GalNAc-T4 obtained from a stably transfected CHO line (8). Experiments illustrated in FIGS. 2 and 3 were performed with secreted GalNAc-T4 expressed in High Five cells grown in serum-free medium (8). Structural analysis of glycopeptides were performed by a combination of PFPA (pentafluoropropionic acid) hydrolysis and MALDI-TOF mass spectrometry as previously described (40). Secreted GalNAc-T7 was obtained from infected High Five™ cells grown in serum-free medium (Invitrogen) in upright roller bottles shaken 140 rpm in waterbaths at 27° C. GalNAc-T7 was not purified by Mini-S as the yields from cationic chromatography were low due to its low pI (6.4).
GalNAc-T7 activity was analysed with GalNAc glycosylated glycopeptides (represented by GalNAc2-3EA2 (7)) in reactions of 25 μl containing 2.5 nmol acceptor (glyco)peptide, 40 nmol UDP-GalNAc, and purified GalNAc-T7. […]

[1] = test system: CHOldlD/MUC1F-clone2 cells; assay: MUC1 expression in cell lysates, immunoprecipitation and SDS-PAGE western blot; format: cell-based, Chinese Hamster; details: 2 mM, 48 hours
[2] = target: T2, secreted soluble GalNAc-T2 (sT2) (Homo sapiens, UniProt Q10471); assay: Direct binding ELISA to GalNAc-MUC1 glycopeptide, competitive inhibition, sT2
T2 construct: HIS-tagged secreted human GalNAc-T2 and -T4 were prepared from pAC-GP67-T2-sol and pAC-GP67-T4-sol cDNA; 6xHis (N); thrombin cleavage site (N); T7 tag (N); made in house; host or cells: High Five insect cells (baculovirus)
Method: (§1) Protein biotinylation was made as previously reported^62. The pH of 1 ml purified protein (0.3 mg/ml) in PBS was adjusted to pH 9 with 1 M NaOH and 40 μl N-hydroxy-succinimidobiotin (Sigma) dissolved in DMF (10 mg/ml) was added. The solution was mixed end-over-end for 2 hours at room temperature, and dialyzed three times against PBS and an equal volume of glycerol was added. The biotinylated proteins were stored at −20° C. in 50% glycerol until use.
(§2) Direct binding ELISA assay was developed as follows: Polystyrene microtiter plates (Maxisorb, Nunc, Denmark) were coated with peptides or enzymatically glycosylated glycopeptides in PBS overnight at 4° C. Plates were washed and blocked with 0.1% Tween20 and 0.2% BSA in PBS for 1 h at room temperature, followed by incubation with biotinylated proteins in PBS with 0.05% Tween20 for 2 h at room temperature. After four washes with PBS, plates were incubated with 1:2,000 dilution streptavidin-HRP (Sigma) in PBS for 30 min at room temperature and washed four times with PBS. Development was performed with 0.5 mg/ml o-phenylenediamine and 0.02% H2O2 at room temperature for 15 min, and reaction stopped by adding 100 μl/well of 0.5 N H2SO4. Competitive inhibition assays were done at end-point titers of GalNAc-transferase proteins with one hour preincubations with inhibitor.
(§3) In binding studies using lectins without biotinylation antibodies to the HIS-tag and the T7-tag, or in some experiments antibodies raised to GalNAc-T2 and -T4 enzymes were used to detect binding.

[3] = target: T3, secreted soluble GalNAc-T4 (sT4) (Homo sapiens, UniProt Q8N4A0); assay: Direct binding ELISA to GalNAc-MUC1 glycopeptide, competitive inhibition, sT4
T3 construct: using the GalNAc-T4-sol construct that encodes residues 32-578 inserted into pT7T3U19; 6xHis (N); thrombin cleavage site (N); T7 tag (N); made in house; host or cells: High Five insect cells (baculovirus)
Method: as §1, §2, §3

T3 sequence (Q8N4A0 32-578): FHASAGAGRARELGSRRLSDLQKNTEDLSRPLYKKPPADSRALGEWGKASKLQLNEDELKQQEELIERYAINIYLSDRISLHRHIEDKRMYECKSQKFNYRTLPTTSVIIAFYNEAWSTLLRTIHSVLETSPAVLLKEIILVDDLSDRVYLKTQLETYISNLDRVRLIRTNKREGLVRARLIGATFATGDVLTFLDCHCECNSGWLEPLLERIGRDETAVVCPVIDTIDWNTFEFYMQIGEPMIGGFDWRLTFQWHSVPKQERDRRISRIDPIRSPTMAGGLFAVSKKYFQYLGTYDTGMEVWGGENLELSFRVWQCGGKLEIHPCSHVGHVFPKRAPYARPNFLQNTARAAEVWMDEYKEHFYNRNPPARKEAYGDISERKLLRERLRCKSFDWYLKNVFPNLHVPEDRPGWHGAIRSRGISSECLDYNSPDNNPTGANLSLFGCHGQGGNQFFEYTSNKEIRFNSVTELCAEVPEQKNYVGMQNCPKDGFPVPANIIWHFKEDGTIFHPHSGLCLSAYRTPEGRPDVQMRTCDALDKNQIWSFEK
T2 sequence (Q10471 52-571 limits assumed): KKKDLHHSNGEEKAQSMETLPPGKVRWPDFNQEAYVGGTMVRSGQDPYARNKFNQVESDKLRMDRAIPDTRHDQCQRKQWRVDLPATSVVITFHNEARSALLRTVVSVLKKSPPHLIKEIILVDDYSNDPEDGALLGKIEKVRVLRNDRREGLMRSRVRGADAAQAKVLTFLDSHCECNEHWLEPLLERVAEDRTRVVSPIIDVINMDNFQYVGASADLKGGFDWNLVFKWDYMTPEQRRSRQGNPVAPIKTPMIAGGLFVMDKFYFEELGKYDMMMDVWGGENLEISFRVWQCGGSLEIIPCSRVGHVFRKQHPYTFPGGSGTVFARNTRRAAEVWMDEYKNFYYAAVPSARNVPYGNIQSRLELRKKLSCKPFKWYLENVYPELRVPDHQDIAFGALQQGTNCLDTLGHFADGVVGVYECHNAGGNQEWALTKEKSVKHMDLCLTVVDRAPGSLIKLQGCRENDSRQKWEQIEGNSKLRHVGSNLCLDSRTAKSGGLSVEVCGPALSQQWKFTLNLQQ

CC(=O)N[C@H]1[C@@H](OCc2ccccc2)O[C@H](CO)[C@H](O)[C@@H]1O [GalNAcα-benzyl]
Inhibition of GalNAc-T7 activity with GalNAc2-3EA2 (GalNAc-T7): significantly inhibited
MUC1 expression ([1]; IP HMFG2, blot 5E5): significant reduction in MUC1 expression
SDS-PAGE migration of MUC1 (O-glycosylation) ([1]; cells grown in Gal and GalNAc, blot 5E5): marked shift in migration

CC(=O)N[C@H]1[C@@H](OCc2ccccc2)O[C@H](CO)[C@@H](O)[C@@H]1O [GlcNAcα-benzyl]
IC50 [2]: > 100 mM
Inhibition of GalNAc-T4 lectin binding ([3]; FIG. 7, ELISA plates with GalNAc-Muc1): no inhibition
IC50 ([3]; binding to GalNAc-MUC1 glycopeptide): > 100 mM
